# Reference: patent US20260083851A1 (AVILAR THERAPEUTICS, INC., priority 2022, published 2026)
# Target: T1, ASGP receptor (biotinylated ASGPR) (Homo sapiens, UniProt P07306)
# T1 construct: biotin (biotinylated)
# T1 sequence (P07306 1-291): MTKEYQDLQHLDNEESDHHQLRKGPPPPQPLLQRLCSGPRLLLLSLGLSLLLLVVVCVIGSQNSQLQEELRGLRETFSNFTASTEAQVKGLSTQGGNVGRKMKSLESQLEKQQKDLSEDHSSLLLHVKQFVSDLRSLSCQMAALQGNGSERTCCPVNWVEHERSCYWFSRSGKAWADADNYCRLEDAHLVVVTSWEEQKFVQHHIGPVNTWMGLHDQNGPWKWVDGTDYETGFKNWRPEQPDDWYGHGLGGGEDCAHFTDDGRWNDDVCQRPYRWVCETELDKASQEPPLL
# Assay type: binding
# Details: SPR, Biacore 8K, 25° C.; Table 1A; read-out: ASGPR KD
row,Kd,SMILES
1,< 10 µM,"O=C(O)CCCCCNC(=O)NC[C@H]1OC[C@H](Nc2cncc(C(F)(F)F)n2)[C@@H](O)[C@H]1O [A115, 6-(3-(((2R,3R,4R,5S)-3,4-dihydroxy-5-((6-(trifluoromethyl)pyrazin-2-yl)amino)tetrahydro-2H-pyran-2-yl)methyl)ureido)hexanoic acid]"
2,< 10 µM,"O=C(NC[C@H]1OC[C@H](Nc2cncc(C(F)(F)F)n2)[C@@H](O)[C@H]1O)c1ccc(-c2ccccc2)nc1 [A7, N-(((2R,3R,4R,5S)-3,4-dihydroxy-5-((6-(trifluoromethyl)pyrazin-2-yl)amino)tetrahydro-2H-pyran-2-yl)methyl)-6-phenylnicotinamide]"
3,< 10 µM,"O[C@@H]1[C@H](O)[C@@H](Nc2cncc(C(F)(F)F)n2)CO[C@@H]1COc1ncccn1 [A61, (2R,3R,4R,5S)-2-((pyrimidin-2-yloxy)methyl)-5-((6-(trifluoromethyl)pyrazin-2-yl)amino)tetrahydro-2H-pyran-3,4-diol]"
4,< 10 µM,"OC[C@H]1CC[C@H](Nc2cncc(C(F)(F)F)n2)[C@@H](O)[C@H]1O [A65, (1R,2S,3R,6S)-3-(hydroxymethyl)-6-((6-(trifluoromethyl)pyrazin-2-yl)amino)cyclohexane-1,2-diol]"
5,< 10 µM,"O=C(NC[C@H]1OC[C@H](Nc2cncc(C(F)(F)F)n2)[C@@H](O)[C@H]1O)c1cnco1 [A48, N-(((2R,3R,4R,5S)-3,4-dihydroxy-5-((6-(trifluoromethyl)pyrazin-2-yl)amino)tetrahydro-2H-pyran-2-yl)methyl)oxazole-5-carboxamide]"
6,< 10 µM,"N#CC[C@H]1OC[C@H](Nc2cncc(C(F)(F)F)n2)[C@@H](O)[C@H]1O [A21, 2-((2R,3R,4R,5S)-3,4-dihydroxy-5-((6-(trifluoromethyl)pyrazin-2-yl)amino)tetrahydro-2H-pyran-2-yl)acetonitrile]"
7,< 10 µM,"O=C(NC[C@H]1OC[C@H](Nc2cncc(C(F)(F)F)n2)[C@@H](O)[C@H]1O)c1ccc(-c2ccccc2)cc1 [A10, N-(((2R,3R,4R,5S)-3,4-dihydroxy-5-((6-(trifluoromethyl)pyrazin-2-yl)amino)tetrahydro-2H-pyran-2-yl)methyl)-[1,1′-biphenyl]-4-carboxamide]"
8,< 10 µM,"O=C(NC[C@H]1OC[C@H](Nc2cncc(C(F)(F)F)n2)[C@@H](O)[C@H]1O)c1cnc(-c2ccccc2)cn1 [A83, N-(((2R,3R,4R,5 S)-3,4-dihydroxy-5-((6-(trifluoromethyl)pyrazin-2-yl)amino)tetrahydro-2H-pyran-2-yl)methyl)-5-phenylpyrazine-2-carboxamide]"
9,< 10 µM,"O=C(O)COCCOCC(=O)NC[C@H]1OC[C@H](Nc2cccc(C(F)(F)F)n2)[C@@H](O)[C@H]1O [A103, 2-(2-(2-((((2R,3R,4R,5S)-3,4-dihydroxy-5-((6-(trifluoromethyl)pyridin-2-yl)amino)tetrahydro-2H-pyran-2-yl)methyl)amino)-2-oxoethoxy)ethoxy)acetic acid]"
10,< 10 µM,"O=C(NC[C@H]1OC[C@H](Nc2cncc(C(F)(F)F)n2)[C@@H](O)[C@H]1O)c1cc2ccccc2[nH]1 [A14, N-(((2R,3R,4R,5S)-3,4-dihydroxy-5-((6-(trifluoromethyl)pyrazin-2-yl)amino)tetrahydro-2H-pyran-2-yl)methyl)-1H-indole-2-carboxamide]"
11,< 10 µM,"O=C(NC[C@H]1OC[C@H](Nc2cncc(C(F)(F)F)n2)[C@@H](O)[C@H]1O)c1ccc2[nH]cnc2n1 [A69, N-(((2R,3R,4R,5S)-3,4-dihydroxy-5-((6-(trifluoromethyl)pyrazin-2-yl)amino)tetrahydro-2H-pyran-2-yl)methyl)-1H-imidazo[4,5-b]pyridine-5-carboxamide]"
12,< 10 µM,"O=C(CC12CC3CC(CC(C3)C1)C2)NC[C@H]1OC[C@H](Nc2cncc(C(F)(F)F)n2)[C@@H](O)[C@H]1O [A12, 2-((3R,5R,7R)-adamantan-1-yl)-N-(((2R,3R,4R,5S)-3,4-dihydroxy-5-((6-(trifluoromethyl)pyrazin-2-yl)amino)tetrahydro-2H-pyran-2-yl)methyl)acetamide]"
13,< 10 µM,"NC1CC2(C1)CC(NC(=O)C[C@H]1OC[C@H](Nc3cncc(C(F)(F)F)n3)[C@@H](O)[C@H]1O)C2 (stereo partly drawn) [A92, N-(6-aminospiro[3.3]heptan-2-yl)-2-((2R,3R,4R,5S)-3,4-dihydroxy-5-((6-(trifluoromethyl)pyrazin-2-yl)amino)tetrahydro-2H-pyran-2-yl)acetamide]"

# Same assay, conditions: SPR, Biacore 8K, 25° C.; Table 1B, numeric bound; read-out: ASGPR Kd
row,Kd,SMILES
1,> 30 µM,"OC[C@H]1OC[C@H](N(CC2CC2)CC2CC2)[C@@H](O)[C@H]1O [A160, (2R,3R,4R,5S)-5-(bis(cyclopropylmethyl)amino)-2-(hydroxymethyl)tetrahydro-2H-pyran-3,4-diol]"

# Same assay, conditions: SPR, Biacore 8K, 25° C.; Table 1B; read-out: ASGPR Kd
row,Kd,SMILES
1,< 10 µM,"OC[C@H]1OC[C@H](Nc2cccc(Br)n2)[C@@H](O)[C@H]1O [A153, (2R,3R,4R,5S)-5-((6-bromopyridin-2-yl)amino)-2-(hydroxymethyl)tetrahydro-2H-pyran-3,4-diol]"
2,< 10 µM,"O=C(c1ccc(Cc2ccccc2)cc1)N1C[C@H](Nc2cncc(C(F)(F)F)n2)[C@@H](O)[C@@H](O)C1 [A148, (4-benzylphenyl)((3S,4R,5S)-3,4-dihydroxy-5-((6-(trifluoromethyl)pyrazin-2-yl)amino)piperidin-1-yl)methanone]"

# Same assay, conditions: SPR, Biacore 8K, 25° C.; Table 1C; read-out: ASGPR KD
row,Kd,SMILES
1,< 10 µM,O[C@@H]1[C@H](O)[C@@H](Oc2cccc(C(F)(F)F)n2)CO[C@@H]1CN1CCN(c2cncnc2)CC1 [A293]
2,< 10 µM,O=C(O)c1cnc(OC[C@H]2OC[C@H](Nc3cccc(C(F)(F)F)n3)[C@@H](O)[C@H]2O)cn1 [A309]
3,< 10 µM,CC(C)(C)OC(=O)N1CC(Cc2ccc(OC[C@H]3OC[C@H](Oc4cccc(C(F)(F)F)n4)[C@@H](O)[C@H]3O)nn2)C1 [A256]
4,< 10 µM,O[C@@H]1[C@H](O)[C@@H](Oc2cccc(C(F)(F)F)n2)CO[C@@H]1COc1ccncc1 [A292]
5,< 10 µM,"OC[C@H]1OC[C@H](Nc2cccc(OC(F)F)n2)[C@@H](O)[C@H]1O [A185, (2R,3R,4R,5S)-5-((6-(difluoromethoxy)pyridin-2-yl)amino)-2-(hydroxymethyl)tetrahydro-2H-pyran-3,4-diol]"
6,< 10 µM,C[C@H]1O[C@@H](c2ccc3ccccc3n2)[C@H](Oc2cccc(C(F)(F)F)n2)[C@@H](O)[C@H]1O [A344]
7,< 10 µM,O[C@@H]1[C@@H](Oc2cccc(C(F)(F)F)n2)COC(C(F)(F)c2ccc(Cl)cc2)[C@@H]1O (stereo partly shown) [A306]
8,< 10 µM,O=C1c2sccc2CN1C[C@H]1OC[C@H](Oc2cccc(C(F)(F)F)n2)[C@@H](O)[C@H]1O [A291]
9,< 10 µM,O[C@@H]1[C@@H](Nc2cccc(C(F)(F)F)n2)[C@H]2OC[C@](COc3cccnn3)(O2)[C@@H]1O [A295]
10,< 10 µM,"CC(C)(C)OC(=O)N1CCN(c2ccc(OC[C@H]3OC[C@H](Oc4cccc(C(F)(F)F)n4)[C@@H](O)[C@H]3O)cc2F)CC1 [A213, tert-butyl 4-(4-(((2R,3R,4S,5S)-3,4-dihydroxy-5-((6-(trifluoromethyl)pyridin-2-yl)oxy)tetrahydro-2H-pyran-2-yl)methoxy)-2-fluorophenyl) piperazine-1-carboxylate]"
11,< 10 µM,C[C@H]1O[C@H](c2ccccc2)[C@H](Oc2cccc(C(F)(F)F)n2)[C@@H](O)[C@H]1O [A252]
12,< 10 µM,O[C@@H]1[C@H](O)[C@@H](Oc2cccc(C(F)(F)F)n2)CO[C@@H]1CN1CCN(c2ccncn2)CC1 [A284]

# Same assay, conditions: SPR, Biacore 8K, 25° C.; Table 1D, numeric bound; read-out: ASGPR KD
row,Kd,SMILES
1,> 30 µM,O=C(OCc1ccccc1)N1C[C@H](O)[C@H](O)[C@@H]([S@+]([O-])c2cccc(C(F)(F)F)n2)C1 [A355]
2,> 30 µM,CN1C[C@H](Nc2ccc(C(F)(F)F)cn2)[C@@H](O)[C@@H](O)C1 [A368]

# Same assay, conditions: SPR, Biacore 8K, 25° C.; Table 1D; read-out: ASGPR KD
row,Kd,SMILES
1,< 10 µM,O[C@@H]1[C@H](O)[C@@H](Nc2cncc(C(F)(F)F)n2)CO[C@@H]1COc1ccc(C2CCNCC2)nn1 [A416]
2,< 10 µM,O[C@@H]1[C@H](O)[C@@H](Nc2cncc(C(F)(F)F)n2)CO[C@@H]1COc1cnc(C2CCNCC2)cn1 [A415]
3,< 10 µM,CC(C)(C)OC(=O)N1CCC(N2C[C@H](Nc3cccc(C(F)(F)F)n3)[C@@H](O)[C@@H](O)C2)CC1 [A397]
4,< 10 µM,CN1C[C@H](Nc2cncc(C(F)(F)F)n2)[C@@H](O)[C@@H](O)C1 [A363]
5,< 10 µM,CCOC(=O)c1nc(N2C[C@H](Oc3cccc(C(F)(F)F)n3)[C@@H](O)[C@@H](O)C2)no1 [A360]
6,< 10 µM,O[C@@H]1[C@@H](Oc2cccc(C(F)(F)F)n2)CN(c2cnccn2)C[C@@H]1O [A425]
7,< 10 µM,O[C@@H]1[C@@H](Oc2cccc(C(F)(F)F)n2)CN(c2ncon2)C[C@@H]1O [A359]
8,< 10 µM,O=C(OCc1ccccc1)N1C[C@H](Nc2ccnc(C(F)(F)F)n2)[C@@H](O)[C@@H](O)C1 [A375]
9,< 10 µM,Nc1ccc(OC[C@H]2OC[C@H](Nc3cncc(C(F)(F)F)n3)[C@@H](O)[C@H]2O)nn1 [A418]
10,< 10 µM,O[C@@H]1[C@@H](Nc2cncc(C(F)(F)F)n2)CN(c2cccnn2)C[C@@H]1O [A395]

# Same assay, conditions: SPR, Biacore 8K, 25° C.; Table 1E; read-out: ASGPR KD
row,Kd,SMILES
1,10 to 100 µM,C[C@H]1O[C@H](COc2cccc(C(F)(F)F)n2)[C@H](O)[C@@H](O)[C@H]1O [A445]
2,< 10 µM,C#Cc1ccc(OC[C@H]2O[C@H](C)[C@H](O)[C@H](O)[C@H]2Oc2cccc(C(F)(F)F)n2)nn1 [A442]
3,< 10 µM,C[C@H]1O[C@H](COc2cnccn2)[C@H](Oc2cccc(C(F)(F)F)n2)[C@@H](O)[C@H]1O [A449]
